Assay results reported in US9855230B2 (ViiV Healthcare UK (No. 5) Limited, priority 2014, dated 2018).
Counter-ions that a name gives are not always drawn. Like-named read-outs stand apart in the source and are kept apart here.

Assays:
[1] = Compound cytotoxicity (CC50), XTT-based colorimetric assay; format: cell-based; details: human; uninfected MT2 cells, day 4, XTT assay
In short: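 Run under the antiviral-assay protocol but without virus. Viability was read on day 4 and CC50 values were derived from the readout.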

[2] = system: recombinant NL4-3 virus (nef section replaced with Renilla luciferase gene) in MT-2 cells; assay: whole plant or invertebrate; format: cell-based, HIV; details: NL43, luciferase activity in MT-2 cells infected 4-5 days with recombinant NL4-3 virus
In short: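 Nef-deleted NL4-3 reporter virus carrying Renilla luciferase was used to infect MT-2 cells in the presence of serial compound dilutions. After 4-5 days of infection, antiviral activity was quantified from luciferase activity using a live-cell substrate.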

SMILES	CC50 at 4 day [1] [µM]	EC50 ([2]; read-out: Activity) [µM]	EC50 ([2]; read-out: EC50) [µM]
COC(=O)Nc1ccc(-c2cccnc2C(Cc2ccccc2)NC(=O)NS(=O)(=O)c2ccccc2Cl)cc1 (stereo not shown) [Example 118, methyl (4-(2-(1-(3-((2-chlorophenyl)sulfonyl)ureido)-2-phenylethyl)pyridin-3-yl)phenyl)carbamate, TFA]	> 100	> 1	
Cc1ccccc1S(=O)(=O)NC(=O)N[C@@H](Cc1ccccc1)c1nccn1-c1ccc2c(c1)OCO2 [Example 27, (S)-N-((1-(1-(benzo[d][1,3]dioxol-5-yl)-1H-imidazol-2-yl)-2-phenylethyl)carbamoyl)-2-methylbenzenesulfonamide]	> 100	< 0.1	0.07
COc1ccc(Cn2ccnc2[C@H](Cc2ccccc2)NC(=O)NS(=O)(=O)c2ccccc2C)cc1 [Example 40, (S)-N-((1-(1-(4-methoxybenzyl)-1H-imidazol-2-yl)-2-phenylethyl)carbamoyl)-2-methylbenzenesulfonamide]	> 33	0.1 to 1	
Cc1ccccc1S(=O)(=O)NC(=O)N[C@@H](Cc1cc(F)cc(F)c1)c1ncccc1-c1ccc2cn(C)nc2c1 [Example 119, (S)-N-((2-(3,5-difluorophenyl)-1-(3-(2-methyl-2H-indazol-6-yl)pyridin-2-yl)ethyl)carbamoyl)-2-methylbenzenesulfonamide, TFA]	58	0.1 to 1	
Cc1ccccc1S(=O)(=O)NC(=O)N[C@@H](Cc1ccccc1)c1nccn1-c1ccc(Cl)cc1 [Example 14, (S)-N-((1-(1-(4-chlorophenyl)-1H-imidazol-2-yl)-2-phenylethyl)carbamoyl)-2-methylbenzenesulfonamide]	> 100	0.1 to 1	
COc1ccc(-c2cccnc2[C@H](Cc2cc(F)cc(F)c2)NC(=O)NS(=O)(=O)c2ccccc2C)cc1 [Example 96, (S)-N-((2-(3,5-difluorophenyl)-1-(3-(4-methoxyphenyl)pyridin-2-yl)ethyl)carbamoyl)-2-methylbenzenesulfonamide, TFA]	> 33	0.1 to 1	0.59
COC(=O)Nc1cccc(-n2ccnc2[C@H](Cc2ccccc2)NC(=O)NS(=O)(=O)c2ccccc2C)c1 [Example 76, (S)-methyl (3-(2-(2-phenyl-1-(3-(o-tolylsulfonyl)ureido)ethyl)-1H-imidazol-1-yl)phenyl)carbamate]	> 100	0.1 to 1	
CCOc1ccc(-c2cccnc2C(Cc2ccccc2)NC(=O)NS(=O)(=O)c2ccccc2C)cc1 (stereo not shown) [Example 93, N-((1-(3-(4-ethoxyphenyl)pyridin-2-yl)-2-phenylethyl)carbamoyl)-2-methylbenzenesulfonamide]	> 100	0.1 to 1	0.42
Cc1nc2cc(-n3ccnc3[C@H](Cc3ccccc3)NC(=O)NS(=O)(=O)c3ccccc3C)ccc2s1 [Example 72, (S)-2-methyl-N-((1-(1-(2-methylbenzo[d]thiazol-5-yl)-1H-imidazol-2-yl)-2-phenylethyl)carbamoyl)benzenesulfonamide]	> 100	< 0.1	0.05
Cc1ccccc1S(=O)(=O)NC(=O)N[C@@H](Cc1ccccc1)c1nccn1-c1ccc2c(c1)CCO2 [Example 18, (S)-N-((1-(1-(2,3-dihydrobenzofuran-5-yl)-1H-imidazol-2-yl)-2-phenylethyl)carbamoyl)-2-methylbenzenesulfonamide]	> 100	< 0.1	0.01
